The target in the experiment is T1, Corticotropin-releasing factor receptor 1 (Rattus norvegicus, UniProt P35353).
T1 sequence (P35353 whole entry): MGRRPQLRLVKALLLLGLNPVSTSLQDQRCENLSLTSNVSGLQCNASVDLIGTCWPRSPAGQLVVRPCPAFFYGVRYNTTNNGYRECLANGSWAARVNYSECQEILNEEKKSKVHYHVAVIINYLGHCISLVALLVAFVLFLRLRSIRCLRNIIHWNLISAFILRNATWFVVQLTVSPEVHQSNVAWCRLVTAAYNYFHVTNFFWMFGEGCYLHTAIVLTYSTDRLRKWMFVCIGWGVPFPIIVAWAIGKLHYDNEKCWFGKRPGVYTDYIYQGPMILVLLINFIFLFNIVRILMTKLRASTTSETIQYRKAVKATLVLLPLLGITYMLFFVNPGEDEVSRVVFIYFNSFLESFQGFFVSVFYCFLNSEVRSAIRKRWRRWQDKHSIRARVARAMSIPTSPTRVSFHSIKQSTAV
The experiment is described as follows: Binding affinity towards Corticotropin releasing hormone receptor type 1 of rat cerebellum using [125I]Tyr-sauvagine as radioligand. The format is tissue-based.

SMILES strings stand for the structures.

As usually defined, the Ki is the equilibrium dissociation constant of an inhibitor or competing ligand from its target. Read a high Ki as weaker binding. Regarding `CCCN(CC1CC1)c1nc(C)nc(Nc2c(Cl)cc(I)cc2Cl)c1Cl`, the affinity corresponds to a Ki of 14 nM.
`CCCN(CC1CC1)c1nc(C)nc(Nc2c(Cl)cc(Cl)cc2Cl)c1Cl`: the Ki came out at 31 nM.
